From patent US20240023549A1 (published 2024)

| SMILES | melting point |
| --- | --- |
| CCN(C)/C=N/c1cc(C)c(C(=O)Nc2ccccc2)cc1C | 147 to 149 °C |
| CCN(C)/C=N/c1cc(C)c(C(=O)n2ccc3cc(C(F)(F)F)ccc32)cc1C | 89 to 92 °C |
